13 compounds from ChEMBL document CHEMBL1201862, “PubChem BioAssay data set” (2004) can be followed below.

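The compound was tested at five concentrations on cells cultured in 96-well plates, with a 48-hour exposure period. GI50 marks 50% less growth.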 Activity calls are given as the source filed them. Rule as the data show it: active = GI50 up to about 1.1 µM and inactive = higher. Bounds are passed on as bounds.

Among the test systems are SW-620; NCI/ADR-RES; SK-MEL-5; HOP-92; TK-10; NCI-H23; A549; PC-3; DU-145; MDA-MB-435; RXF 393; SNB-75; Hs-578T; UACC-257; MDA-MB-231; HT-29; BT-549.
Holding throughout (assay): NCI anticancer screen, dose series, 48 h

Turning to `CCN1C(=O)C(=Cc2ccc(-c3ccccc3)cc2)C(=O)N(CC)C1=S`, the GI50 in the test with SW-620 was > 100 µM (inactive); with NCI/ADR-RES it was 34.7 µM (inactive); with SK-MEL-5, > 100 µM (inactive); with HOP-92, > 100 µM (inactive); with TK-10, > 100 µM (inactive); in the test with NCI-H23, > 100 µM (inactive). In addition, the GI50 was > 100 µM (inactive) in the test on A549; > 100 µM (inactive) with PC-3; > 100 µM (inactive) in the test with DU-145; > 100 µM (inactive) in the test on MDA-MB-435; > 100 µM (inactive) in the test with RXF 393; 71.8 µM (inactive) in the test on SNB-75. The GI50 in the test with Hs-578T, in the test with UACC-257, with MDA-MB-231, in the test on HT-29 and in the test with BT-549 was > 100 µM (inactive) throughout.

With `CC(=O)OC/C=C\Cn1ncc(=O)[nH]c1=O`, the GI50 with SW-620 was 17.1 µM (inactive); in the test on NCI/ADR-RES it was 23.1 µM (inactive); in the test on SK-MEL-5, 12.6 µM (inactive); in the test on HOP-92 it was 15.8 µM (inactive); in the test with NCI-H23 it was 13.6 µM (inactive); in the test on A549, 22.9 µM (inactive). Besides, the GI50 in the test on PC-3 was 16 µM (inactive); with DU-145, 24.2 µM (inactive); with MDA-MB-435, 18.2 µM (inactive); in the test on RXF 393, 17.8 µM (inactive); in the test with SNB-75, 16.7 µM (inactive); in the test on Hs-578T, 27.7 µM (inactive). Also, the GI50 in the test with MDA-MB-231 was 34 µM (inactive); with HT-29 it was 14.2 µM (inactive).

On to `CN(N)c1nc(N)c(C#N)c(C#N)c1C#N`, for which the GI50 in the test on SW-620, with NCI/ADR-RES, in the test with SK-MEL-5, in the test on HOP-92, in the test with TK-10 and in the test on NCI-H23 was > 10 µM (inactive) each time. Moreover, the GI50 in the test with A549, with PC-3, in the test on DU-145, in the test on MDA-MB-435, in the test on SNB-75 and with Hs-578T was > 10 µM (inactive) each time. Moreover, the GI50 with UACC-257, with MDA-MB-231, in the test on HT-29 and in the test on BT-549 was > 10 µM (inactive) each time.

`CC1(C)CC[C@]2(C)CC[C@]3(C)C(=CC[C@@H]4[C@@]5(C)CCC(=O)C(C)(C)[C@@H]5[C@H](O)C[C@]43C)[C@@H]2C1`: the GI50 with SW-620 was 19.8 µM (inactive); in the test with NCI/ADR-RES it was 19.6 µM (inactive); in the test on SK-MEL-5 it was 17.4 µM (inactive); in the test with HOP-92, 17.5 µM (inactive); in the test with TK-10, 16.5 µM (inactive); with NCI-H23, 19.5 µM (inactive). Moreover, the GI50 in the test with A549 is 20.3 µM (inactive); in the test with PC-3, 17.1 µM (inactive); in the test with DU-145, 18.2 µM (inactive); in the test on MDA-MB-435 it was 19.9 µM (inactive); in the test on RXF 393 it was 16.1 µM (inactive); in the test with Hs-578T, 19.5 µM (inactive). The GI50 in the test on UACC-257 was 17.7 µM (inactive); with MDA-MB-231 it was 11.5 µM (inactive); with HT-29, 17 µM (inactive); in the test on BT-549, 20.5 µM (inactive).

Take `O=S(=O)(O)c1ccc2cccc(/N=N\c3c(O)ccc4ccccc34)c2c1`: the GI50 in the test on SW-620, in the test with NCI/ADR-RES, in the test with SK-MEL-5, in the test with HOP-92, with TK-10 and in the test on NCI-H23 was > 100 µM (inactive) in each case. Moreover, the GI50 in the test on A549, in the test with PC-3, in the test with DU-145, in the test on MDA-MB-435, in the test on RXF 393 and in the test on SNB-75 was > 100 µM (inactive) in each case. The GI50 in the test with Hs-578T, with UACC-257, in the test with MDA-MB-231 and in the test on BT-549 was > 100 µM (inactive) in each case.

As to `S=C1SC(=N\c2ccccc2)/C(=N/c2ccccc2)N1c1ccccc1`, the GI50 was > 100 µM (inactive) in the test on NCI/ADR-RES; 62.7 µM (inactive) in the test with SK-MEL-5; > 100 µM (inactive) in the test on NCI-H23; > 100 µM (inactive) in the test with PC-3; > 100 µM (inactive) in the test on DU-145; > 100 µM (inactive) with MDA-MB-435. In addition, the GI50 is > 100 µM (inactive) in the test on RXF 393; 19 µM (inactive) in the test with SNB-75; 27.9 µM (inactive) in the test with Hs-578T; > 100 µM (inactive) with MDA-MB-231; 87.7 µM (inactive) in the test with HT-29; > 100 µM (inactive) with BT-549.

For the compound `CC1(C)[C@@H]2C[C@H]1C(Cc1ccccc1C[C@H]1c3cc(-c4ccccn4)ncc3[C@H]3C[C@@H]1C3(C)C)c1cc(-c3ccccn3)ncc12` (stereo not given in full), the GI50 with SW-620 is 0.6 µM (active); with NCI/ADR-RES, 1.91 µM (inactive); in the test with SK-MEL-5, 0.0834 µM (active); with TK-10, 0.638 µM (active); with NCI-H23, 0.726 µM (active); with A549, 0.371 µM (active). Also, the GI50 in the test on PC-3 is 0.47 µM (active); with DU-145, 0.375 µM (active); in the test on MDA-MB-435, 0.416 µM (active); in the test on RXF 393, 0.714 µM (active); with SNB-75, 0.679 µM (active); in the test with UACC-257 it was 0.507 µM (active). Further, the GI50 is 0.587 µM (active) in the test with MDA-MB-231, 0.371 µM (active) in the test on HT-29 and 0.716 µM (active) in the test on BT-549.

For the compound `Nc1cc2[nH]c(=O)c3cc(Cl)ccc3c2cc1Cl`, the GI50 in the test on SW-620 is 8.55 µM (inactive); in the test with NCI/ADR-RES, 13.3 µM (inactive); in the test on SK-MEL-5, 12.1 µM (inactive); with TK-10, 11.8 µM (inactive); in the test on NCI-H23 it was 15.8 µM (inactive); in the test on A549 it was 12.9 µM (inactive). Further, the GI50 with DU-145 was 12 µM (inactive); in the test on MDA-MB-435, 14.3 µM (inactive); with SNB-75, 15.5 µM (inactive); in the test with Hs-578T, 39.1 µM (inactive); with UACC-257 it was 21.1 µM (inactive); in the test on MDA-MB-231, 14.1 µM (inactive). The GI50 in the test with HT-29 was 22.3 µM (inactive); in the test with BT-549 it was > 100 µM (inactive).

As to `N#CC(C#N)=C1C(=O)NC(N)=C1C#N`, the GI50 in the test with SW-620, in the test on NCI/ADR-RES, in the test with SK-MEL-5, in the test with HOP-92, in the test with TK-10 and in the test with NCI-H23 was > 100 µM (inactive) in each case. For the same compound, the GI50 with A549, in the test with PC-3, in the test on DU-145, with MDA-MB-435, in the test on RXF 393 and with Hs-578T was > 100 µM (inactive) throughout. The GI50 in the test with UACC-257, in the test with MDA-MB-231, with HT-29 and in the test on BT-549 was > 100 µM (inactive) in each case.

`COc1ccc(N[S+]([O-])c2ccc(-c3ccccc3)cc2)cc1` (stereo not given): the GI50 in the test on SW-620 was 70.8 µM (inactive); in the test on NCI/ADR-RES, 55 µM (inactive); with SK-MEL-5, > 100 µM (inactive); with TK-10 it was > 100 µM (inactive); in the test with NCI-H23, 46 µM (inactive); in the test on A549 it was > 100 µM (inactive). Besides, the GI50 is 22.3 µM (inactive) with PC-3; > 100 µM (inactive) in the test on DU-145; > 100 µM (inactive) with MDA-MB-435; > 100 µM (inactive) in the test on RXF 393; 22.3 µM (inactive) in the test on SNB-75; 0.667 µM (active) with Hs-578T. The GI50 with UACC-257, in the test on MDA-MB-231 and in the test on HT-29 was > 100 µM (inactive) each time.

Regarding `O=C(O)C(Cc1ccc(O)cn1)NC(=O)C(F)(F)F` (stereo not given), the GI50 in the test on SW-620, with NCI/ADR-RES, with SK-MEL-5, in the test with TK-10, in the test on NCI-H23 and with A549 was > 100 µM (inactive) in each case. Also, the GI50 in the test on PC-3, with DU-145, in the test on MDA-MB-435, with RXF 393, in the test with Hs-578T and in the test on UACC-257 was > 100 µM (inactive) each time. In addition, the GI50 in the test on MDA-MB-231, with HT-29 and with BT-549 was > 100 µM (inactive) each time.

In the case of `OC1COC2CC(Nc3ccccn3)OC12` (stereo not given), the GI50 was > 100 µM (inactive) in the test on SW-620; 56.9 µM (inactive) with NCI/ADR-RES; > 100 µM (inactive) in the test with SK-MEL-5; > 100 µM (inactive) in the test on TK-10; > 100 µM (inactive) with NCI-H23; > 100 µM (inactive) in the test with A549. For the same compound, the GI50 with PC-3, with MDA-MB-435, in the test with RXF 393, in the test on SNB-75, in the test on Hs-578T and with UACC-257 was > 100 µM (inactive) throughout. For the same compound, the GI50 with MDA-MB-231, in the test with HT-29 and with BT-549 was > 100 µM (inactive) each time.

For the compound `CC(=O)/N=C1/N(/C=C2\C(=O)Oc3ccccc3C2=O)C(=O)/C(=C/c2ccc(OC(C)=O)cc2)N1C`, the GI50 in the test on SW-620, in the test with NCI/ADR-RES, in the test with SK-MEL-5, in the test on NCI-H23, with A549 and in the test with PC-3 was > 100 µM (inactive) each time. Also, the GI50 in the test with DU-145 is > 100 µM (inactive); with MDA-MB-435, > 100 µM (inactive); in the test on RXF 393, > 100 µM (inactive); in the test on SNB-75, 88.9 µM (inactive); with Hs-578T it was > 100 µM (inactive); in the test with UACC-257, > 100 µM (inactive). In addition, the GI50 in the test on MDA-MB-231 and in the test with HT-29 was > 100 µM (inactive) in each case.
